According to patent publication US9056874B2, “Complement pathway modulators and uses thereof” (NOVARTIS AG, priority 2012, dated 2015):

Each compound was assayed against factor B (Homo sapiens, UniProt P00751) (assay: factor B inhibition assay of Biological Example 1). Settings: IC50 (nM), assay of Biological Example 1 (Table 1).
factor B, sequence (P00751 260-764 limits assumed): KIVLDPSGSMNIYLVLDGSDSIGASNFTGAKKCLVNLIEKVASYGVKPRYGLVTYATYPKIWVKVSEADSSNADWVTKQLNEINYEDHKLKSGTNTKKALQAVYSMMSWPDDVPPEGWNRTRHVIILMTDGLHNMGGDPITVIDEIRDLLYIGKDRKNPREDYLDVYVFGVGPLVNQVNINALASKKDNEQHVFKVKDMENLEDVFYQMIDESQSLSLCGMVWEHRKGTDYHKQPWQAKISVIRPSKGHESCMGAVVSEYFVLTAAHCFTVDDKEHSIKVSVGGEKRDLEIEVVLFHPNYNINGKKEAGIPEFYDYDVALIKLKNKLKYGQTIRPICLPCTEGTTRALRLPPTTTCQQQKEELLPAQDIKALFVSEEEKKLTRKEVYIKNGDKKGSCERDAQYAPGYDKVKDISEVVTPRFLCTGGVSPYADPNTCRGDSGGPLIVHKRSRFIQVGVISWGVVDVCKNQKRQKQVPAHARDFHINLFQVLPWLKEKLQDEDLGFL
factor B, sequence (Q91132 23-649 partner limits assumed): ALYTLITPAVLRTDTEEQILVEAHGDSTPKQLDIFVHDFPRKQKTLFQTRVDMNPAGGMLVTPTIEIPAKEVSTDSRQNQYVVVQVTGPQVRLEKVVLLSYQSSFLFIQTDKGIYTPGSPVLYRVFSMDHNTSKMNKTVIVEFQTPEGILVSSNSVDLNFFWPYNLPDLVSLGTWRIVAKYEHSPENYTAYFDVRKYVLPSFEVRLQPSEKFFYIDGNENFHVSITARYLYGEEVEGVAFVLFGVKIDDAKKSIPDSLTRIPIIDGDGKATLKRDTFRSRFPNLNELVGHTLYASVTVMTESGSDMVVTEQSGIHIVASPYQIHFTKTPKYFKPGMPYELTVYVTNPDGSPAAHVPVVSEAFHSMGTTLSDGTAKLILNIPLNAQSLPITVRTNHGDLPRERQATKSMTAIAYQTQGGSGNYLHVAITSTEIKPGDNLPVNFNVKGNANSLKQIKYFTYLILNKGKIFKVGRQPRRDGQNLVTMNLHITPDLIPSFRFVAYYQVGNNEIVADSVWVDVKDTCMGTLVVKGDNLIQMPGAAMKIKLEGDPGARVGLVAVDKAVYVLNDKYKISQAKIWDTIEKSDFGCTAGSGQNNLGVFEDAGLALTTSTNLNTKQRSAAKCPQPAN
factor B, sequence (Q91132 733-984 partner limits assumed): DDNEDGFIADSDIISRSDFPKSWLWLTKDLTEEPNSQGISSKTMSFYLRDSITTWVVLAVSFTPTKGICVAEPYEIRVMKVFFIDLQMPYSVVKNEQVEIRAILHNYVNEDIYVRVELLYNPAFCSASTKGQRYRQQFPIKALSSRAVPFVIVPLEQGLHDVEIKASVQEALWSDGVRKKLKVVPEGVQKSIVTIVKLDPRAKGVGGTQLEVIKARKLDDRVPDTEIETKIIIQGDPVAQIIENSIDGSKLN
factor B, sequence (Q91132 1264-1642 partner limits assumed): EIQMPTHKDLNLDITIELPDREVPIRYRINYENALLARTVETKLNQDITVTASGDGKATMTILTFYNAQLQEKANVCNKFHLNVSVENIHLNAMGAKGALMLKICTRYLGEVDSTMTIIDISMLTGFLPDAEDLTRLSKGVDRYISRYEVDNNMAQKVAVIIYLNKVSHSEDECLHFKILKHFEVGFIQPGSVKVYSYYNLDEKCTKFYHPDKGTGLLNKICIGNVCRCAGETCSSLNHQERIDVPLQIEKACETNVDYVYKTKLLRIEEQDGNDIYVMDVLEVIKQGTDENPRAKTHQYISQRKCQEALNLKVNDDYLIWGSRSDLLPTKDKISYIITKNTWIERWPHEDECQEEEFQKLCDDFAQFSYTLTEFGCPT
Type: biochemical
Set-up: CVF-Bb complex prepared from purified cobra venom factor (1 μM), recombinant human complement factor B; made in house; host or cells: drosophila cells (factor B); E. coli (factor D used to form the complex)
`COc1cc(C)c2[nH]ccc2c1C(N)(c1nc2cc(C#N)ccc2[nH]1)C(F)(F)F` (racemic) [36-E b) (+), (+)-2-(1-amino-2,2,2-trifluoro-1-(5-methoxy-7-methyl-1H-indol-4-yl)ethyl)-1H-benzo[d]imidazole-5-carbonitrile] gave an IC50 of 50 nM. For `Cc1cc(C)c2[nH]ccc2c1C(O)c1nc2cc(C#N)ccc2[nH]1` (single isomer, unassigned; (-)) [64-C b) (−), (−)-2-((5,7-dimethyl-1H-indol-4-yl)(hydroxy)methyl)benzo[d]imidazole-5-carbonitrile], the IC50 was 60 nM. With `Cc1cc(C2CC2)c(C(C)(O)c2nc3cc(C#N)ccc3[nH]2)c2cc[nH]c12` (single isomer, unassigned; (-)) [79-C b) (−), (−)-2-(1-(5-cyclopropyl-7-methyl-1H-indol-4-yl)-1-hydroxyethyl)-1H-benzo[d]imidazole-5-carbonitrile] the IC50 was 6 nM. Compound `Cc1cc(C)c2[nH]ccc2c1C(C)(N)c1nc2cc(C#N)ccc2[nH]1` (racemic) [101-E b) (−), (−)-2-(1-amino-1-(5,7-dimethyl-1H-indol-4-yl)ethyl)benzo[d]imidazole-5-carbonitrile] has an IC50 of 50 nM. For `COC(C)(c1nc2cc(C#N)ccc2[nH]1)c1c(OC(F)F)cc(C)c2[nH]ccc12` (single isomer, unassigned; (-)) [8-B b) (−), (−)-2-(1-(5-(difluoromethoxy)-7-methyl-1H-indol-4-yl)-1-methoxyethyl)-1H-benzo[d]imidazole-5-carbonitrile], the IC50 was 900 nM. `Cc1cc(C2CC2)c(C(O)c2nc3cc(C#N)ccc3[nH]2)c2cc[nH]c12` (stereo not drawn) [Example 67-B] was tested, and the IC50 was 260 nM. Compound `COc1cc(C)c2[nH]ccc2c1C(OCC(=O)O)(c1nc2cc(C#N)ccc2o1)C(F)(F)F` (racemic) [Example 129-B, (±)-2-(1-(5-cyanobenzo[d]oxazol-2-yl)-2,2,2-trifluoro-1-(5-methoxy-7-methyl-1H-indol-4-yl)ethoxy)acetic acid] has an IC50 of 7860 nM. `CCOCc1cc(C)c2[nH]ccc2c1C(O)c1nc2cc(C#N)ccc2[nH]1` (single isomer, unassigned; (-)) [66-D b) (−), (−)-2-((5-(ethoxymethyl)-7-methyl-1H-indol-4-yl)(hydroxy)methyl)-1H-benzo[d]imidazole-5-carbonitrile] was tested, and the IC50 was 5110 nM. For `Cc1cc(C)c2[nH]cc3c2c1C(O)(c1nc2cc(C#N)ccc2[nH]1)CC3` (single isomer, unassigned) [93-F b) (tr = 7.2 min), (+) or (−)-2-(5-hydroxy-6,8-dimethyl-1,3,4,5-tetrahydrobenzo[cd]indol-5-yl)-1H-benzo[d]imidazole-5-carbonitrile], the IC50 was 33800 nM. Work on `[2H]C([2H])([2H])C(OC)(c1nc2cc(C#N)ccc2[nH]1)c1c(OC)cc(C)c2[nH]ccc12` (single isomer, unassigned; (+)) [27-E b) (+), (+)-2-((^2H3)methyl(methoxy)(5-methoxy-7-methyl-1H-indol-4-yl)methyl)-1H-benzo[d]imidazole-5-carbonitrile] yielded an IC50 of 90 nM. Compound `CCc1cc(C)c2[nH]ccc2c1C(O)(c1nc2cc(C#N)ccc2[nH]1)C(F)(F)F` (single isomer, unassigned; (-)) [80-C b) (−), (−)-2-(1-(5-ethyl-7-methyl-1H-indol-4-yl)-2,2,2-trifluoro-1-hydroxyethyl)-1H-benzo[d]imidazole-5-carbonitrile] has an IC50 of 10 nM. For `CCC(O)(c1nc2cc(C#N)ccc2[nH]1)c1c(OC(C)C)cc(C)c2[nH]ccc12` (single isomer, unassigned; (+)) [26-F b) (+), (+)-2-(1-hydroxy-1-(5-isopropoxy-7-methyl-1H-indol-4-yl)propyl)-1H-benzo[d]imidazole-5-carbonitrile], the IC50 was 230 nM. In the case of `Cc1cc(S(C)(=O)=O)c(C(N)c2nc3cc(C#N)ccc3[nH]2)c2cc[nH]c12` (single isomer, unassigned) [18-D (+), 2-(amino(7-methyl-5-(methylsulfonyl)-1H-indol-4-yl)methyl)-1H-benzo[d]imidazole-5-carbonitrile], the IC50 is reported as 1240 nM. `Cc1cc(C)c2[nH]ccc2c1C(O)(c1nc2cc(C#N)ccc2[nH]1)C(F)(F)F` (single isomer, unassigned; (-)) [80-D b) (−), (−)-2-(1-(5,7-dimethyl-1H-indol-4-yl)-2,2,2-trifluoro-1-hydroxyethyl)-1H-benzo[d]imidazole-5-carbonitrile] showed an IC50 of 70 nM. Compound `COc1cc(C)c2[nH]ccc2c1Cc1nc2cc(C#N)ccc2o1` [Example 20-G] has an IC50 of 120 nM. With `Cc1cc(Br)c2[nH]ccc2c1Cc1nc2cc(C#N)ccc2[nH]1` [Example 112-E, 2-((7-Bromo-5-methyl-1H-indol-4-yl)methyl)-1H-benzo[d]imidazole-5-carbonitrile] the IC50 was 4150 nM. `Cc1cc(CO)c(C(O)c2nc3cc(C#N)ccc3[nH]2)c2cc[nH]c12` (single isomer, unassigned; (-)) [65-D b) (−), (−)-2-(hydroxy(5-(hydroxymethyl)-7-methyl-1H-indol-4-yl)methyl)-1H-benzo[d]imidazole-5-carbonitrile] gave an IC50 of 270 nM. `Cc1cc(OC(C)C)c(Cc2nc3cc(C#N)ccc3[nH]2)c2cc[nH]c12` [Example 20-E] showed an IC50 of 670 nM. For `CCc1cc(C)c2[nH]ccc2c1C(=O)c1nc2cc(C#N)ccc2[nH]1` [Example 78, 2-(5-Ethyl-7-methyl-1H-indole-4-carbonyl)-1H-benzo[d]imidazole-5-carbonitrile], the IC50 was 640 nM. For `CCOC(c1nc2cc(C#N)ccc2[nH]1)c1c(C)cc(C)c2[nH]ccc12` (racemic) [Example 73, (±)-2-((5,7-Dimethyl-1H-indol-4-yl)(ethoxy)methyl)-1H-benzo[d]imidazole-5-carbonitrile], the IC50 was 1270 nM. With `CCc1cc(C)c2[nH]ccc2c1C(N)c1nc2cc(C#N)ccc2[nH]1` (single isomer, unassigned; (-)) [96-C b) (−), (−)-2-(amino(5-ethyl-7-methyl-1H-indol-4-yl)methyl)-1H-benzo[d]imidazole-5-carbonitrile] the IC50 was 70 nM. With `COC(c1nc2cc(C#N)ccc2[nH]1)(c1c(S(C)(=O)=O)cc(C)c2[nH]ccc12)C(F)(F)F` (single isomer, unassigned; (+)) [15-D b) (+), (+)-2-(2,2,2-trifluoro-1-methoxy-1-(7-methyl-5-(methylsulfonyl)-1H-indol-4-yl)ethyl)-1H-benzo[d]imidazole-5-carbonitrile] the IC50 was 32700 nM. `Cc1cc(S(C)(=O)=O)c(C(N)c2nc3cc(C#N)ccc3[nH]2)c2cc[nH]c12` (single isomer, unassigned) [18-D (−), 2-(amino(7-methyl-5-(methylsulfonyl)-1H-indol-4-yl)methyl)-1H-benzo[d]imidazole-5-carbonitrile] was tested, and the IC50 was 150 nM. `COc1cc(C)c2[nH]ccc2c1C(OCC(=O)O)(c1nc2cc(C#N)ccc2[nH]1)C(F)(F)F` (single isomer, unassigned; (-)) [35-C (−), (−)-2-(1-(5-cyano-1H-benzo[d]imidazol-2-yl)-2,2,2-trifluoro-1-(5-methoxy-7-methyl-1H-indol-4-yl)ethoxy)acetic acid] gave an IC50 of 40 nM. `Cc1cc(C)c2[nH]ccc2c1C(CO)c1nc2cc(C#N)ccc2[nH]1` (racemic) [Example 108-E, (±)-2-(1-(5,7-Dimethyl-1H-indol-4-yl)-2-hydroxyethyl)-1H-benzo[d]imidazole-5-carbonitrile] gave an IC50 of 80 nM. `Cc1cc(C)c2[nH]ccc2c1C(O)c1nc2c(C)c(C#N)ccc2[nH]1` (single isomer, unassigned; (-)) [67-G b) (−), (−)-2-((5,7-dimethyl-1H-indol-4-yl)(hydroxy)methyl)-4-methyl-1H-benzo[d]imidazole-5-carbonitrile] was tested, and the IC50 was 570 nM. Compound `Cc1cc(OC(C)C)c(C(N)(c2nc3cc(C#N)ccc3[nH]2)C(F)(F)F)c2cc[nH]c12` (racemic) [Example 37, (±)-2-(1-Amino-2,2,2-trifluoro-1-(5-isopropoxy-7-methyl-1H-indol-4-yl)ethyl)-1H-benzo[d]imidazole-5-carbonitrile] has an IC50 of 30 nM. Compound `Cc1cc(C)c2[nH]cc(-c3cnn(C)c3)c2c1C(O)c1nc2cc(C#N)ccc2[nH]1` (single isomer, unassigned) [119 b) (tr = 1.54 min), (+)- or (−)-2-((5,7-dimethyl-3-(1-methyl-1H-pyrazol-4-yl)-1H-indol-4-yl)(hydroxy)methyl)-1H-benzo[d]imidazole-5-carbonitrile] has an IC50 of 130 nM. In the case of `COCC(C)Oc1cc(C)c2[nH]ccc2c1Cc1nc2cc(C#N)ccc2[nH]1` (racemic) [Example 23, (±)-2-((5-((1-Methoxypropan-2-yl)oxy)-7-methyl-1H-indol-4-yl)methyl)-1H-benzo[d]imidazole-5-carbonitrile], the IC50 is reported as 2650 nM. For `COC(C)(c1nc2cc(C#N)ccc2[nH]1)c1c(CC(C)C)cc(C)c2[nH]ccc12` (single isomer, unassigned; (+)) [84-E b) (+), (+)-2-(1-(5-isobutyl-7-methyl-1H-indol-4-yl)-1-methoxyethyl)-1H-benzo[d]imidazole-5-carbonitrile], the IC50 was 1200 nM. In the case of `Cc1cc(S(C)(=O)=O)c(C(N)(c2nc3cc(C#N)ccc3[nH]2)C(F)(F)F)c2cc[nH]c12` (single isomer, unassigned; (+)) [17-B b) (+), (+)-2-(1-amino-2,2,2-trifluoro-1-(7-methyl-5-(methylsulfonyl)-1H-indol-4-yl)ethyl)-1H-benzo[d]imidazole-5-carbonitrile], the IC50 is reported as 6860 nM. `Cc1cc(S(C)(=O)=O)c(C(N)(c2nc3cc(C#N)ccc3[nH]2)C(F)(F)F)c2cc[nH]c12` (single isomer, unassigned; (-)) [17-B b) (−), (−)-2-(1-amino-2,2,2-trifluoro-1-(7-methyl-5-(methylsulfonyl)-1H-indol-4-yl)ethyl)-1H-benzo[d]imidazole-5-carbonitrile] gave an IC50 of 1330 nM.

Same assay, conditions: assay of Biological Example 1 (Table 1), read-out: IC50
“(−) or (+)-2-(1-methoxy-1-(7-methyl-5-(methylsulfonyl)-1H-indol-4-yl)ethyl)-1H-benzo[d]imidazole-5-carbonitrile [12-B b) (tr = 6.1 min)]” showed an IC50 of 600 nM.
